Assay results taken from patent US11612586B2, “Indole regulation of antigen presenting cells” (THE TEXAS A&M UNIVERSITY SYSTEM, priority 2016, dated 2023).

Legend:
Salmonella Typhimurium = experiment: Salmonella invasion of and intracellular survival in J774.A1 macrophages; assay type: cell-based
naïve CD4+CD25− T cells = experiment: DC-T cell co-culture, monoclonal (OT-II, OVA323-339) stimulation: Foxp3+ Treg induction; assay type: cell-based, mouse
Protocol: FIG. 16 graphically illustrates that indole-conditioned DCs preferentially induce Foxp3+ Tregs (monoclonal stimulation). Naïve CD4+CD25− T cells from OT-II TCR transgenic mice were isolated and labeled with cell proliferation dye. Naïve T cells were then co-cultured with OVA323-339 peptide-loaded BMDCs for 72 hours in the presence of TGF-β as indicated. BMDCs were previously treated with indole, RA, or DMF from day 3. Following 3 days of co-culture, surface and intracellular staining was performed for flow cytometric analysis. The mean percentage of Foxp3-positive […] from four independent experiments is shown. * indicates p<0.05 for one-way ANOVA followed by Dunnett's post-test.
FIGS. 20A and 20B graphically illustrate that T cell skewing mediated by indole-conditioned DCs is AhR-independent. BMDCs were differentiated from WT or AhR-KO mice and conditioned with indole, RA, or DMF from day 3. DCs were then loaded with OVA323-339 and co-cultured with naïve CD4+CD25− T cells from OT-II transgenic mice for 72 hours. For Th1 cultures, T cells were restimulated with PMA and ionomycin in the presence of golgiplug for the last 5 hours of culture. Subsequently, all cultures were stained and analyzed by flow cytometry for Foxp3 to identify Tregs or (B) IFNγ to identify Th1 cells.
To investigate whether indole-conditioned DCs preferentially induce Tregs, a co-culture system using FACS-sorted wild-type naïve CD4+CD25− T cells was employed. These naïve T cells were activated by antibodies against CD3 and CD28 in the presence of indole-conditioned BMDCs and cultured for 72 hours. Under this platform for polyclonal stimulation, a 2-fold increase in Treg induction in indole-DC cultures compared to controls was observed (FIG. 15). Additionally, the inventors pursued the same question in a more physiologically relevant model; i.e., under monoclonal T cell stimulation. […]

IL-12 = IL-12 production in BMDMs, intracellular staining, flow cytometry; assay type: cell-based, mouse
Protocol: BMDMs were treated with indole or DMF control for 18 hours or 4 hours, followed by stimulation with LPS (2 ug/ml or 250 ng/ml) for 4 hours in the presence of Golgiplug. BMDMs were then stained for intracellular TNF or IL-12 and analyzed by flow cytometry.
First, pro-inflammatory cytokine production in macrophages was investigated. […] In the DC study described herein, DCs were typically conditioned with indole during their development from bone marrow precursors in order to mimic the proximity of DC progenitor cells to indole in the intestinal microenvironment during development. […] BMDMs were treated for 18 hours with indole, followed by a 4 hour stimulation with either a very high (2 ug/ml) or low (250 ng/ml) dose of LPS.
Additionally, to determine if recently arrived macrophage precursors might also be affected, BMDMs were next treated for just 4 hours with indole, followed by a […] stimulation with the same LPS concentrations.
To address the question of indole and AhR dependence in macrophages, experiments using BMDMs derived from AhR-knockout mice were run alongside wild-type littermate controls. Specifically, flow cytometric analysis of BMDMs was performed on WT or AhR-KO mice and treated with indole or DMF control for 18 hours. BMDMs were stimulated for 4 hours with LPS (50 ng/ml) in the presence of Golgiplug, then stained for intracellular TNF (left panels) and IL-12 (right panels).
The inventors performed a series of assays where bone marrow derived macrophages (BMDMs), bone marrow derived dendritic cells (BMDCs), and splenic dendritic cells (splenic DCs), were exposed to a series of TDMMs, including indole, indole-3-acetate (I3AT), 5-hydroxyindole (5HI), and indole-3-pyruvate (I3P), as well as indole-3-carbinol (I3C; a plant derived compound) to be used for a positive control (1 mM for 24 hours). The BMDMs and BMDCs were stimulated with LPS for 4 hours and assayed at day 7 for expression of various pro-inflammatory cytokines. In a similar assay, the BMDMs and BMDCs were stimulated with LPS or CpG, respectively, for 15 minutes and assayed for pAKT and pERK signaling, which is a reflection of pro-inflammatory response.
Bone marrow was harvested as described above and cultured at a density of 1×10^6 cells in 10 ml complete media supplemented with 10 ng/ml M-CSF (Peprotech) in 100 mm×15 mm petri dishes. Media with cytokine was replenished on day 3. Adherent and semi-adherent cells were recovered on day 7, plated, and treated with indole prior to downstream experiments.

SMILES: c1ccc2[nH]ccc2c1 [Indole, indole]
- intracellular survival of Salmonella in J774.A1 macrophages (Salmonella Typhimurium): not significantly affected
- decrease of Salmonella invasion of J774.A1 macrophages (Salmonella Typhimurium; Salmonella exposed to indole): 2 fold
- Treg induction above solvent controls (naïve CD4+CD25− T cells; BMDCs conditioned with indole, exogenous TGF-β absent or 2 ng/ml): Significance was not reached
- Treg induction above solvent controls (naïve CD4+CD25− T cells; OT-II T cells with OVA-loaded BMDCs conditioned with indole, TGF-β at 10 and 30 ng/ml): 3.5 fold
- AhR dependence of Treg skewing (naïve CD4+CD25− T cells; indole-conditioned BMDCs from wild-type or AhR−/− mice): entirely independent of AhR
- reduction of IL-12 production (IL-12; BMDMs from WT or AhR-KO mice, 1 mM indole 18 hours, LPS 50 ng/ml 4 hours): approximately 2 fold
- IL-12 (IL-12; BMDMs, 1 mM TDMM 24 hours, LPS 1 ug/ml 4 hours): ↓↓↓
- inhibition of IL-12 production (IL-12; BMDMs, 1 mM indole 18 hours, LPS 2 ug/ml or 250 ng/ml 4 hours): ~2 fold
